Measured values from DBAASP.
Values after ≈ are worked out from the molar mass of the structure shown.

What was measured:
Experiment in all cases: ≥ marks a high value that may be exact or a test limit, other limits are often not marked, values filed in µg/mL are converted to µM
[1] = system: Staphylococcus aureus ATCC 9144
[2] = system: Escherichia coli NCTC 12923
[3] = system: Klebsiella pneumoniae NCTC 13368
[4] = system: Candida albicans ATCC 90028
[5] = system: Pseudomonas aeruginosa PAO1
[6] = system: Staphylococcus aureus USA 300
[7] = system: Acinetobacter baumannii ATCC 17978
[8] = system: Staphylococcus xylosus DSM 20287
[9] = system: Franconibacter helveticus DSM 18390
[10] = system: Bacillus subtilis DSM 347
[11] = system: Escherichia coli DSM 1116
[12] = system: Staphylococcus aureus ATCC 29213
Escherichia coli SBS 363 = system: Escherichia coli SBS 363
[13] = system: Candida tropicalis IOC 4560
[14] = system: Bacillus megaterium ATCC 10778
Candida albicans MDM8 = system: Candida albicans MDM8
Micrococcus luteus A270 = system: Micrococcus luteus A270
[15] = system: Serratia marcescens ATCC 4112
[16] = system: Pseudomonas aeruginosa NCIB 10421
[17] = system: Enterobacter cloacae beta-12
[18] = system: Bacillus subtilis ATCC 6633
[19] = system: Micrococcus luteus NBRC 3333
[20] = system: Aspergillus oryzae NBRC 100959
[21] = system: Escherichia coli NBRC 3972
[22] = system: Staphylococcus epidermidis NBRC 12993
[23] = system: Candida viswanathii NBRC 10321
[24] = system: Lactiplantibacillus plantarum 8014
Escherichia coli K99 = system: Escherichia coli K99
[25] = system: Salmonella enterica subsp. enterica serovar Typhimurium C77-31
Escherichia coli UB1005 = system: Escherichia coli UB1005
[26] = system: Salmonella enterica subsp. enterica serovar Typhimurium ATCC 14028
[27] = system: Lacticaseibacillus rhamnosus 1.0911
[28] = system: Lacticaseibacillus rhamnosus 7469
[29] = system: Escherichia coli ATCC 25922
[30] = system: Staphylococcus aureus ATCC 25923
[31] = system: Pseudomonas aeruginosa ATCC 27853
[32] = system: Staphylococcus aureus ATCC 43300
Escherichia coli K88 = system: Escherichia coli K88
[33] = system: Lacticaseibacillus rhamnosus 1.0385
[34] = system: Salmonella enterica subsp. enterica serovar Pullorum C79-13
[35] = system: Lacticaseibacillus rhamnosus 1.0936

`C[C@H](NC(=O)CNC(=O)[C@H](CCCCN)NC(=O)[C@@H](N)CS)C(=O)N[C@@H](Cc1ccccc1)C(=O)N[C@@H](CCCCN)C(=O)N[C@@H](CCC(N)=O)C(=O)N[C@H](C(=O)N[C@@H](CS)C(=O)N[C@@H](CCCCN)C(=O)N[C@@H](CS)C(=O)N[C@@H](Cc1ccc(O)cc1)C(N)=O)[C@@H](C)O` [CKGAFKQTCKCY] was tested, and the MIC [1] was at least 92.8 µM, the MIC [2] was at least 92.8 µM and the MIC [3] was at least 92.8 µM. For the same compound, the MIC [4] was 4.4 µM (≈ 6.07 µg/mL), the MIC [5] was over 92.8 µM and the MIC [6] was at least 92.8 µM. The MIC [7] was at least 92.8 µM.
With `CC[C@H](C)[C@H](N)C(=O)N[C@@H](C)C(=O)N[C@@H](CCCCN)C(=O)N[C@H](C(=O)N[C@@H](C)C(=O)NCC(=O)N[C@@H](CCCCN)C(=O)N[C@H](C(=O)N[C@@H](C)C(=O)N[C@@H](CCCCN)C(=O)N[C@H](C(=O)N[C@@H](C)C(=O)NCC(=O)N[C@@H](CCCCN)C(=O)N[C@H](C(=O)N[C@@H](C)C(=O)N[C@@H](CCCCN)C(=O)N[C@H](C(=O)N[C@@H](C)C(=O)NCC(=O)N[C@@H](CCCCN)C(=O)N[C@H](C(=O)N[C@@H](C)C(N)=O)[C@@H](C)CC)[C@@H](C)CC)[C@@H](C)CC)[C@@H](C)CC)[C@@H](C)CC)[C@@H](C)CC` [IAKIAGKIAKIAGKIAKIAGKIA] the MIC [8] was 0.89 µM (≈ 2 µg/mL), the MIC [9] was 1.26 µM (≈ 2.83 µg/mL) and the MIC [10] was 0.89 µM (≈ 2 µg/mL). It also gave an MIC [11] of 1.78 µM (≈ 4 µg/mL).
In the case of `CC[C@H](C)[C@H](N)C(=O)N[C@@H](C)C(=O)N[C@@H](CCCCN)C(=O)N[C@H](C(=O)N[C@@H](C)C(=O)NCC(=O)N[C@@H](CCCCN)C(=O)N[C@H](C(=O)N[C@@H](C)C(=O)N[C@@H](CCCCN)C(=O)N[C@H](C(=O)N[C@@H](C)C(=O)NCC(=O)N[C@@H](CCCCN)C(=O)N[C@H](C(=O)N[C@@H](C)C(N)=O)[C@@H](C)CC)[C@@H](C)CC)[C@@H](C)CC)[C@@H](C)CC` [IAKIAGKIAKIAGKIA], the MIC [8] is reported as at least 163 µM, the MIC [9] is reported as at least 116 µM and the MIC [10] is reported as 28.9 µM (≈ 45.2 µg/mL). For the same compound, the MIC [11] was at least 163 µM.
With `CC[C@H](C)[C@H](N)C(=O)N[C@@H](CC(C)C)C(=O)NCC(=O)N[C@@H](CCCCN)C(=O)N[C@@H](Cc1ccccc1)C(=O)N[C@@H](Cc1c[nH]c2ccccc12)C(=O)N[C@@H](CCC(=O)O)C(=O)NCC(=O)N[C@H](C(=O)N[C@@H](CCCCN)C(=O)N[C@@H](CO)C(=O)N[C@@H](CC(C)C)C(=O)N[C@@H](Cc1ccccc1)C(N)=O)[C@@H](C)CC` [ILGKFWEGIKSLF] the MIC [12] was 6.25 µM (≈ 9.61 µg/mL), the MIC (Escherichia coli SBS 363) was 3.13 µM (≈ 4.81 µg/mL) and the MIC [13] was 1.56 µM (≈ 2.4 µg/mL). The MIC [14] was 0.78 µM (≈ 1.2 µg/mL), the MIC (Candida albicans MDM8) was 3.13 µM (≈ 4.81 µg/mL) and the MIC (Micrococcus luteus A270) was 0.78 µM (≈ 1.2 µg/mL). The MIC [15] was 0.78 µM (≈ 1.2 µg/mL), the MIC [16] was 25 µM (≈ 38.4 µg/mL) and the MIC [17] was 12.5 µM (≈ 19.2 µg/mL). The MIC [18] was 0.78 µM (≈ 1.2 µg/mL).
`CC[C@H](C)[C@H](N)C(=O)N[C@@H](CC(C)C)C(=O)N[C@@H](CC(C)C)C(=O)N[C@@H](CCCCN)C(=O)N[C@H](C(=O)N[C@@H](Cc1c[nH]c2ccccc12)C(=O)N[C@@H](CCC(=O)O)C(=O)NCC(=O)N[C@H](C(=O)N[C@@H](CCCCN)C(=O)N[C@@H](CO)C(=O)N[C@@H](CC(C)C)C(=O)N[C@@H](Cc1ccccc1)C(N)=O)[C@@H](C)CC)[C@@H](C)CC` [ILLKIWEGIKSLF] showed an MIC [12] of 1.56 µM (≈ 2.43 µg/mL), an MIC (Escherichia coli SBS 363) of 0.78 µM (≈ 1.22 µg/mL) and an MIC [13] of 3.13 µM (≈ 4.88 µg/mL). The MIC [14] was 0.78 µM (≈ 1.22 µg/mL), the MIC (Candida albicans MDM8) was 3.13 µM (≈ 4.88 µg/mL) and the MIC (Micrococcus luteus A270) was 0.78 µM (≈ 1.22 µg/mL). For the same compound, the MIC [15] was 0.36 µM (≈ 0.561 µg/mL), the MIC [16] was at least 50 µM and the MIC [17] was 12.5 µM (≈ 19.5 µg/mL). It also gave an MIC [18] of 0.78 µM (≈ 1.22 µg/mL).
With `CC[C@H](C)[C@H](NC(=O)[C@H](CCCCN)NC(=O)[C@@H](N)CCCN=C(N)N)C(=O)N[C@@H](CCCCN)C(=O)N[C@@H](CCCN=C(N)N)C(=O)N[C@@H](Cc1ccc(O)cc1)C(=O)N[C@@H](CC(C)C)C(=O)N[C@@H](CCCN=C(N)N)C(=O)N[C@@H](CCCN=C(N)N)C(=O)N[C@@H](CCSC)C(=O)N[C@@H](Cc1c[nH]c2ccccc12)C(=O)O` [RKIKRYLRRMW] the MIC [19] was 15.6 µM (≈ 25 µg/mL), the MIC [20] was 7.78 µM (≈ 12.5 µg/mL) and the MIC [21] was at least 125 µM. The MIC [22] was 15.6 µM (≈ 25 µg/mL) and the MIC [23] was 15.6 µM (≈ 25 µg/mL).
`CC(C)C[C@H](NC(=O)[C@H](CC(C)C)NC(=O)[C@H](Cc1c[nH]c2ccccc12)NC(=O)[C@H](Cc1c[nH]c2ccccc12)NC(=O)[C@H](Cc1c[nH]c2ccccc12)NC(=O)[C@@H](N)CCCN=C(N)N)C(N)=O` [RWWWLL] was tested, and the MIC [24] was at least 64 µM, the MIC (Escherichia coli K99) was 16 µM (≈ 15.3 µg/mL) and the MIC [25] was 16 µM (≈ 15.3 µg/mL). It also gave an MIC (Escherichia coli UB1005) of 16 µM (≈ 15.3 µg/mL), an MIC [26] of 32 µM (≈ 30.7 µg/mL) and an MIC [27] of at least 64 µM. It also gave an MIC [28] of at least 64 µM, an MIC [29] of 16 µM (≈ 15.3 µg/mL) and an MIC [30] of 8 µM (≈ 7.67 µg/mL). For the same compound, the MIC [31] was over 64 µM, the MIC [32] was 8 µM (≈ 7.67 µg/mL) and the MIC (Escherichia coli K88) was 16 µM (≈ 15.3 µg/mL). The MIC [33] was at least 64 µM, the MIC [34] was at least 64 µM and the MIC [35] was at least 64 µM.
